Experimental data as given in PubChem BioAssay (NCI).
“And” between values parts separate entries of the source, which are not always exact repeats. Equal values may be shown once.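 The compound was tested at five concentrations on cells cultured in 96-well plates, with a 48-hour exposure period. At the GI50, growth is halved. TGI denotes the concentration required for complete inhibition of growth.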

What was measured:
Assay in all cases: inhibition of tumour cell growth, NCI panel, 48 h
[1] = test system: MALME-3M melanoma
[2] = test system: SK-MEL-5 melanoma
[3] = test system: RXF 393 renal
[4] = test system: UACC-62 melanoma
[5] = test system: IGROV1 ovarian
[6] = test system: A498 renal
[7] = test system: NCI-H23 lung
[8] = test system: A549 NSCLC
[9] = test system: SK-OV-3 ovarian
[10] = test system: DU-145 prostate

Row | SMILES | GI50 [1] | TGI [1] | GI50 [2] | TGI [2] [µM] | GI50 [3] [µM] | TGI [3] | GI50 [4] [µM] | TGI [4] | GI50 [5] [µM] | TGI [5] [µM] | GI50 [6] | TGI [6] | GI50 [7] [µM] | TGI [7] [µM] | GI50 [8] | TGI [8] [µM] | GI50 [9] [µM] | TGI [9] | GI50 [10] | TGI [10] [µM]
1 | COc1cc2nc(SCc3cc(OC)c(OC)c(OC)c3)n(Cc3ccccc3)c(=O)c2cc1OC | 2.83 µM | 27 µM | 0.454 µM | 2.63 | 1.02 | 10.8 µM | 3.22 | 50.5 µM | 7.82 | > 70.5 | 1.62 µM | 7.87 µM | 6.58 | > 100 | 3.14 µM | > 100 | 3.18 | 18.6 µM | 5.38 µM | > 100
2 | CC(C)c1c(-c2ccccc2)nc2c(C#N)c[nH]n2c1=O | 24.3 µM | 73.3 µM | 19.6 µM | 40.4 | 29.3 | > 93.4 µM | 24.3 | 72.2 µM | 34.3 | > 100 | 13 µM | 51.1 µM | 26.1 | > 79.6 | 33.4 µM | > 100 | 27.2 | > 88.6 µM | 37.1 µM | > 100
3 | CC(=O)Oc1ccc(C23c4ccccc4C2(OC(C)=O)c2cc(OC(C)=O)ccc23)cc1 (centres undefined) | 9.61 µM | 27.3 µM | 6.19 µM | 20.3 | 3.38 | 12.3 µM | 3.69 | 13.7 µM | 5.86 | 27.2 | 34.8 µM | > 100 µM | 10.2 | 28.5 | 17.6 µM | 70.2 | 20.5 | 47.6 µM | 6.88 µM | 20.7
4 | Cn1c(C(=O)c2ccncc2)cc2ccccc21 | > 100 µM | > 100 µM | 37.5 µM | > 100 | 35.1 | > 100 µM | 83.5 | > 100 µM | > 100 | > 100 | 26.2 µM | > 100 µM | > 100 | > 100 | > 100 µM | > 100 | > 100 | > 100 µM | > 100 µM | > 100
5 | C[C@@H]1C[C@H](C)CN(S(=O)(=O)c2ccc3c(NO)c4ccc(S(=O)(=O)N5C[C@H](C)C[C@H](C)C5)cc4c(N=O)c3c2)C1 | 0.14 µM | 0.293 µM | 0.25 µM | 0.687 | 0.158 | 0.299 µM | 0.181 | 0.345 µM | 0.21 | 0.461 | – | > 1 µM | 0.185 | 0.4 | 0.17 µM | 0.327 | 0.122 | 0.248 µM | 0.115 µM | 0.268
6 | O=S(=O)(NC1=NCCN1C(=S)SN1CCn2c1nsc2=S)c1cccc2ccccc12 | 12.3 µM | 57.4 µM | 19.1 µM | 54.4 | 10.5 | 67.2 µM | 21 | 71.6 µM | 10 | 32.6 | 29.5 µM | 78 µM | 20.9 | 80.9 | 35.2 µM | > 100 | 31.1 | 91.5 µM | 19.3 µM | 49.2
7 | Cc1nc(N)nc2c1CCC(O)S2 (centres undefined) | 11.3 µM | 39.4 µM | 12.5 µM | 26.3 | 5.4 | 27 µM | 11.3 | 25.8 µM | 4.67 | 17.9 | 17.7 µM | 93.1 µM | 3.66 | 17.2 | 19.3 µM | 78.2 | 11.3 | 25.6 µM | 3.5 µM | 12.2
8 | COc1cccc(/C(C#N)=C/c2nc3c(N4CCOCC4)nc(Cl)nc3n2C)c1 | 1.57 µM | 2.97 µM | 1.73 µM | 3.14 | 1.02 | 2.23 µM | 1.2 | 2.47 µM | 1.2 | 2.49 | 1.49 µM | 2.91 µM | 1.52 | 3.19 | 1.57 µM | 4.23 | 5.42 | 18.3 µM | 1.29 µM | 2.58
9 | CC1CCC2(NC1)OC1CC3C4CC=C5CC(O)CCC5(C)C4CCC3(C)C1C2C (centres undefined) | 34.1 µM and 13.5 µM | > 100 µM and 34.3 µM | 59 µM and 27.3 µM | > 100 | – | 60.2 µM and 39.9 µM | – | 65.1 µM and 50.4 µM | – | > 100 | 18.7 µM and 5.56 µM | 38.5 µM and 14.5 µM | – | > 100 | 42.4 µM and 20.3 µM | > 100 | – | 69.2 µM and 38.6 µM | 94.2 µM and 35.3 µM | > 100
